Consider 59 molecules from patent US8633232B2, “Compounds, compositions and methods of using same for modulating uric acid levels” (Ardea Biosciences, Inc., priority 2008, dated 2014).

The target of this assay is T1, hURAT1 Transporter (Homo sapiens, UniProt Q96S37).
T1 construct: Full-length human URAT1 gene (SLC22A12) was subcloned from plasmid pCMV6-XL5
T1 sequence (Q96S37 1-553): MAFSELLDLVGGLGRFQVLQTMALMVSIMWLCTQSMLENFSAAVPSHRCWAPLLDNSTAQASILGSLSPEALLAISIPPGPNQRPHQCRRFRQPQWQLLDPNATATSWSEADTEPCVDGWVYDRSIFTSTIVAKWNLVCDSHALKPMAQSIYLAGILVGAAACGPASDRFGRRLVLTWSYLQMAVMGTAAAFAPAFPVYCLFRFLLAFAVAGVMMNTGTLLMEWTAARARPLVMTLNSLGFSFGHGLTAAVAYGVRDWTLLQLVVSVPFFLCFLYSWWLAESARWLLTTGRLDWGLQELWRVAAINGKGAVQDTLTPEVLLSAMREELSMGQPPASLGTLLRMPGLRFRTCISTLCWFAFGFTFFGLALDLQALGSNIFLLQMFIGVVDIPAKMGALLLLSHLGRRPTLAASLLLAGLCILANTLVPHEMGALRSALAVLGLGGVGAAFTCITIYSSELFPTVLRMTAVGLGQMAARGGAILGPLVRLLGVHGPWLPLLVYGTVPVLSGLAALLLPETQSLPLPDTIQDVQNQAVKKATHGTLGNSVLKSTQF
Kind of assay: Uric Acid Uptake Assay. Conditions: HEK293/urat1 cells; C14 Uric Acid 40 μM; 10 minutes at room temperature. Format: cell-based. The text has this:
Creation of Stable Cell Lines Expressing hURAT1 Transporter: Full-length human URAT1 gene (SLC22A12) was subcloned from plasmid pCMV6-XL5 (Origene) into eukaryotic expression plasmid pCMV6/Neo (Origene) using Not I restriction sites. Gene sequencing confirmed the sequence of hURAT1 as outlined in Genbank (Accession #NM_144585.2). HEK293 human embryonic kidney cells (ATCC#CRL-1573) were propagated in EMEM tissue culture medium as described by ATCC in an atmosphere of 5% CO2 and 95% air. Transfections of HEK293 cells with the pCMV6/Neo/URAT1 construct were performed using L2000 transfection reagent (Invitrogen) as described by the manufacturer. After 24 h the transfected cells were split into 10 cm tissue culture plates and grown for 1 day after which the medium was replaced with fresh growth medium containing G418 (Gibco) at 0.5 mg/ml final concentration. Drug-resistant colonies were selected after approximately 8 days and then tested for ^14C-uric acid transport activity. The HEK293/urat1 cells are plated on Poly-D-Lysine Coated 96-well Plates at a density of 75,000 cells per well.
Cells were grown overnight (20-26 hours) at 37° C. in an incubator. Plates were allowed to come to room temperature and media was washed out with one wash of […] of Wash Buffer (125 mM Na Gluconate, 10 mM Hepes ph 7.3). Compound or vehicle is added in assay buffer with C14 Uric Acid for a final concentration of 40 μM Uric Acid with a specific activity of 54 mCi/mmol. Assay Buffer is 125 mM Sodium Gluconate, 4.8 mM Potassium Gluconate, 1.2 mM Potassium phosphate, monobasic, 1.2 mM magnesium sulfate, 1.3 mM Ca Gluconate, 5.6 mM Glucose, 25 mM HEPES, pH 7.3. Plates were incubated at room temperature for 10 minutes then washed 3 times with 50 μl Wash Buffer and 3 times with 250 μl Wash Buffer. Microscint 20 Scintillation Fluid was added and plates were incubated overnight at 45° C. to equilibrate. Plates are then read on the TopCount Plate Reader and an EC50 value generated. (See Enomoto et al, Nature, 2002, 417, 447-451 and Anzai et al, J. Biol. Chem., 2004, 279, 45942-45950.).
Compounds prepared as described herein, were examined according to the procedure described above and EC50 values generated. […] (N/A means data not available).
Take `Cc1nnc(SCC(=O)O)n1-c1ccc(N(C)C)c2ccccc12`: the EC50 – broadly, the concentration giving half of the maximal effect – is above 30 µM.
`Cc1ccc(-n2c(C)nnc2SCC(=O)O)c(C)c1` showed an EC50 above 30 µM.
As for `CCc1ccc(-n2c(Br)nnc2SCC(=O)O)c2cc(OC)ccc12`, the concentration for a half-maximal effect (EC50) was in the range of 1 to 30 µM.
Molecule `CC(Sc1nnc(Br)n1-c1ccc(C2CC2)c2ccccc12)C(=O)O` (centres unmarked) returned an EC50 of 0.001 to 1 µM.
Under `CCc1ccc(-n2c(SCC(=O)O)nnc2C(F)F)c2ccccc12` [Example 4, 2-(5-(difluoromethyl)-4-(4-ethylnaphthalen-1-yl)-4H-1,2,4-triazol-3-ylthio)acetic acid] stands 1 to 30 µM; under `CCOC(=O)CSc1nncn1-c1ccc(C)c2c1CCCC2`, 1 to 30 µM; under `COc1ccc(Cl)c(-n2c(SCC(=O)O)nnc2C(F)F)c1`, above 30 µM.
Under `Cc1cc(C)c(-n2cnnc2SCC(=O)O)c2c1CCCC2` stands above 30 µM; under `CC(C)(C)OC(=O)C(C)(C)Sc1nnc(Br)n1-c1ccc(C2CC2)c2ccccc12` [Example 101, tert-Butyl 2-(5-bromo-4-(4-cyclopropylnaphthalen-1-yl)-4H-1,2,4-triazol-3-ylthio)-2-methylpropanoate], above 30 µM; under `Cc1nnc(SCC(=O)O)n1-c1cc(Cl)ccc1Cl`, above 30 µM.
Under `COC(=O)CSc1nnc(Br)n1-c1ccc(C2CC2)c2ccccc12` [Example 102, Methyl 2-(5-bromo-4-(4-cyclopropylnaphthalen-1-yl)-4H-1,2,4-triazol-3-ylthio)acetate] stands 1 to 30 µM; under `O=C(O)CSc1nnc(Br)n1-c1cccc2c(OCC3CC3)cccc12`, above 30 µM; under `COc1ccc2c(Br)ccc(-n3c(Br)nnc3SCC(=O)O)c2c1`, 1 to 30 µM.
Molecule `Cc1ccc(-n2c(SCC(=O)O)nnc2C(F)F)c2c1NCCC2` gave an EC50 above 30 µM.
Consider `CCOC(=O)CSc1nnc(N)n1-c1ccc(C2CC2)c2ccccc12`, for which the EC50 is above 30 µM.
Take `O=C(O)CSc1nnc(-c2ccccc2)n1-c1ccc(C2CC2)c2ccccc12`: the EC50 was in the range of 1 to 30 µM.
The same measure for `CCOC(=O)CSc1nncn1-c1c(C)cc(C)c2c1CCCC2`: 1 to 30 µM.
Turning to `CCCSc1nnc(N)n1-c1ccc(C2CC2)c2ccccc12`, the EC50 was above 30 µM.
Under `Cc1nnc(SCC(=O)O)n1-c1ccc2c(c1)OCCO2` stands above 30 µM.
The same measure for `O=C(O)CSc1nnc(Br)n1-c1cccc2ccccc12`: 1 to 30 µM; for `Cc1nnc(SCC(=O)O)n1-c1cccc2cccnc12`: above 30 µM; for `CCOC(=O)CSc1nnc(C(F)F)n1-c1ccc(CC)c2ccccc12` [ethyl 2-(5-(difluoromethyl)-4-(4-ethylnaphthalen-1-yl)-4H-1,2,4-triazol-3-ylthio)acetate]: above 30 µM.
The same measure for `Nc1nnc(SCCCC(=O)O)n1-c1ccc(C2CC2)c2ccccc12`: 1 to 30 µM.
With `CCOC(=O)CSc1nncn1-c1ccc(C)c2ccc(C)cc12` [ethyl 2-(4-(4,7-dimethylnaphthalen-1-yl)-4H-1,2,4-triazol-3-ylthio)acetate], the EC50 was in the range of 1 to 30 µM.
Under `Cc1nnc(SCC(=O)O)n1-c1ccccc1C(F)(F)F` stands above 30 µM.
The same measure for `CCOC(=O)CSc1nnc(-c2ccccc2)n1-c1ccc(C2CC2)c2ccccc12`: 1 to 30 µM.
Under `Nc1nnc(SCC(=O)O)n1-c1ccc(C2CC2)c2ccccc12` stands 1 to 30 µM.
`CCc1ccc(-n2c(CF)nnc2SCC(=O)O)c2ccccc12` gave an EC50 of 1 to 30 µM.
The same measure for `CCCSc1nnc(Br)n1-c1ccc(C2CC2)c2ccccc12`: 1 to 30 µM.
On to `Cc1nnc(SCC(=O)O)n1-c1cccc(Cl)c1`, for which the EC50 is above 30 µM.
As for `Cc1nnc(SCC(=O)O)n1-c1ccc(Oc2ccccc2)cc1`, the concentration giving a half-maximal response (EC50) is above 30 µM.
`CC(Sc1nnc(N)n1-c1ccc(C2CC2)c2ccccc12)C(=O)O` (centres unmarked) had an EC50 of 1 to 30 µM.
`O=C(O)CSc1nnc(Br)n1-c1cc(C(F)(F)F)ccc1Cl` gave an EC50 above 30 µM.
Consider `Cc1cc(C)c2ccccc2c1-n1c(SCC(=O)O)nnc1C(F)F`, for which the EC50 fell in the range of 1 to 30 µM.
`Cc1ccc(-n2cnnc2SCC(=O)O)c2c1NCCC2` came in with an EC50 above 30 µM.
Under `Cc1nnc(SCC(=O)O)n1-c1ccc(C(F)(F)F)cc1` stands above 30 µM.
Under `CCOC(=O)CCCSc1nnc(Br)n1-c1ccc(C2CC2)c2ccccc12` stands 1 to 30 µM; under `CCc1ccc(-n2c(Br)nnc2SCC(=O)OC)c2ccccc12`, 0.001 to 1 µM.
Under `CCOC(=O)CCSc1nnc(N)n1-c1ccc(C2CC2)c2ccccc12` [ethyl 3-(5-amino-4-(4-cyclopropylnaphthalen-1-yl)-4H-1,2,4-triazol-3-ylthio)propanoate] stands 1 to 30 µM.
`O=C(O)CCCSc1nnc(Br)n1-c1ccc(C2CC2)c2ccccc12` registered an EC50 of 0.001 to 1 µM.
The molecule `COc1ccc2c(C3CC3)ccc(-n3c(Br)nnc3SCC(=O)O)c2c1` yielded an EC50 of 1 to 30 µM.
Turning to `CCOC(=O)CSc1nnc(C(F)(F)F)n1-c1ccc(C)c2c1CCCC2`, the EC50 lay within 1 to 30 µM.
The same measure for `CC(C)(Sc1nnc(C(F)(F)F)n1-c1ccc(C2CC2)c2ccccc12)C(=O)O` [Example 9, 2-(4-(4-Cyclopropylnaphthalen-1-yl)-5-(trifluoromethyl)-4H-1,2,4-triazol-3-ylthio)-2-methylpropanoic acid]: 0.001 to 1 µM.
The same measure for `CCOC(=O)CSc1nnc(CF)n1-c1ccc(C)c2c1CCCC2` [ethyl 2-(5-(fluoromethyl)-4-(4-methyl-5,6,7,8-tetrahydronaphthalen-1-yl)-4H-1,2,4-triazol-3-ylthio)acetate]: 1 to 30 µM; for `CCOC(=O)CSc1nncn1-c1ccc(C)c2c1CCCN2`: above 30 µM.
Under `CCOC(=O)C(C)Sc1nnc(Br)n1-c1ccc(C2CC2)c2ccccc12` (centres unmarked) stands 1 to 30 µM; under `Cc1cc(C)c(-n2c(SCC(=O)O)nnc2C(F)(F)F)c2c1CCCC2` [Example 1A, 2-(4-(2,4-Dimethyl-5,6,7,8-tetrahydronaphthalen-1-yl)-5-(trifluoromethyl)-4H-1,2,4-triazol-3-ylthio)acetic acid], 1 to 30 µM; under `Cc1ccc(-n2c(SCC(=O)O)nnc2C(F)F)c2ccccc12`, 1 to 30 µM.
In turn, `CCOC(=O)CSc1nnc(C(F)(F)F)n1-c1ccc(OC)c2c1CCCC2` registered an EC50 above 30 µM.
In turn, `CC(C)(C)OC(=O)CSc1nnc(Br)n1-c1ccc(C2CC2)c2ccccc12` came in with an EC50 above 30 µM.
Regarding `CC(C)(Sc1nnc(N)n1-c1ccc(C2CC2)c2ccccc12)C(=O)O` [Example 5, 2-(5-amino-4-(4-cyclopropylnaphthalen-1-yl)-4H-1,2,4-triazol-3-ylthio)-2-methylpropanoic acid], the EC50 is above 30 µM.
The same measure for `Cc1nnc(SCC(=O)O)n1-c1ccccc1Cl`: above 30 µM; for `Cc1cccc(C)c1-n1c(C)nnc1SCC(=O)O`: above 30 µM; for `Cc1ccc(-n2c(SCC(N)=O)nnc2C(F)F)c2c1CCCC2`: 1 to 30 µM.
The molecule `CCOC(=O)CCSc1nnc(Br)n1-c1ccc(C2CC2)c2ccccc12` [ethyl 3-(5-bromo-4-(4-cyclopropylnaphthalen-1-yl)-4H-1,2,4-triazol-3-ylthio)propanoate] registered an EC50 of 1 to 30 µM.
Under `CC(C)(C)c1ccc(-n2c(SCC(=O)O)nnc2C(F)F)c(Cl)c1` stands above 30 µM; under `CCc1ccc(-n2c(Br)nnc2SCC(=O)O)c2ccccc12`, 0.001 to 1 µM; under `CCOC(=O)CSc1nnc(C(F)(F)F)n1-c1c(C)cc(C)c2c1CCCC2` [ethyl 2-(4-(2,4-dimethyl-5,6,7,8-tetrahydronaphthalen-1-yl)-5-(trifluoromethyl)-4H-1,2,4-triazol-3-ylthio)acetate], above 30 µM.
`Cc1nnc(SCC(=O)O)n1-c1ccc(C(=O)O)cc1` displayed an EC50 above 30 µM.
